31 substances from patent publication US20050074879A1, “Antisense oligonucleotide modulation of STAT3 expression” (priority 2000, published 2005) can be followed below.

Oligonucleotides are written 5' to 3', each unit as a sugar letter and its base; * is a phosphorothioate linkage, no mark a phosphodiester; rarer units and linkages stand in square brackets, end groups in braces. Plain capitals give the bases only. e = 2'-O-(2-methoxyethyl) (MOE); [5mC] = 5-methylcytosine; d = 2'-deoxy (DNA)

This data set concerns Human STAT3 mRNA. Nature of the data set: Inhibition of human STAT3 mRNA levels in A549 cells, 75 nM, real-time PCR (Table 13). It is filed as cell-based. Conditions: 75 nM oligonucleotide with LIPOFECTIN, real-time PCR PPS 199, percent inhibition relative to untreated control cells, average of 2 experiments. As for the experimental part: Oligonucleotide activity is assayed by quantitation of STAT3 mRNA levels by real-time PCR (RT-PCR) using the ABI PRISMS 7700 Sequence Detection System (PE-Applied Biosystems, Foster City, Calif.) according to manufacturer's instructions. This is a closed-tube, non-gel-based, fluorescence detection system which allows high-throughput quantitation of polymerase chain reaction (PCR) products in real-time. As opposed to standard PCR, in which amplification products are quantitated after the PCR is completed, products in RT-PCR are quantitated as they accumulate. This is accomplished by including in the PCR reaction an oligonucleotide probe that anneals specifically between the forward and reverse PCR primers, and contains two fluorescent dyes. A reporter dye (e.g., JOE or FAM, PE-Applied Biosystems, Foster City, Calif.) is attached to the 5′ end of the probe and a quencher dye (e.g., TAMRA, PE-Applied Biosystems, Foster City, Calif.) is attached to the 3′ end of the probe. When the probe and dyes are intact, reporter dye emission is quenched by the proximity of the 3′ quencher dye. During amplification, annealing of the probe to the target sequence creates a substrate that can be cleaved by the 5′-exonuclease activity of Taq polymerase. […] With each cycle, additional reporter dye molecules are cleaved from their respective probes, and the fluorescence intensity is monitored at regular (six-second) intervals by laser optics built into the ABI PRISM™ 7700 Sequence Detection System. In each assay, a series of parallel reactions containing serial dilutions of mRNA from untreated control samples generates a standard curve that is used to quantitate the percent inhibition after antisense oligonucleotide treatment of test samples.
RT-PCR reagents are obtained from PE-Applied Biosystems, Foster City, Calif. RT-PCR reactions are carried out by adding 25 l PCR cocktail (1× TAQMAN7 buffer A, 5.5 mM MgCl2, 300 µM each of DATP, dCTP and dGTP, 600 µM of dUTP, 100 nM each of forward primer, reverse primer, and probe, 20 U RNAse inhibitor, 1.25 units AMPLITAQ GOLD7, and 12.5 U MuLV reverse transcriptase) to 96 well plates containing 25 l poly(A) mRNA solution. The RT reaction is carried out by incubation for 30 minutes at 48° C. following a 10 minute incubation at 95° C. to activate the AMPLITAQ GOLD7, 40 cycles of a two-step PCR protocol are carried out: 95° C. for 15 seconds (denaturation) followed by 60° C. for 1.5 minutes (annealing/extension).
The compounds were analyzed for their effect on STAT3 mRNA levels in A549 cells. The human lung carcinoma cell line A549 was obtained from the American Type Culture Collection (ATCC) (Manassas, Va.). A549 cells were routinely cultured in DMEM basal media (Invitrogen Corporation, Carlsbad, Calif.) supplemented with 10% fetal calf serum (Invitrogen Corporation, Carlsbad, Calif.), 100 units/mL penicillin, and 100 ug/mL streptomycin (Invitrogen Corporation, Carlsbad, Calif.). Cells were routinely passaged by trypsinization and dilution when they reached 90% confluence.
When cells reached 65-75% confluency, they were treated with oligonucleotide. For cells grown in 96-well plates, wells were washed once with […] OPTI-MEM-1 reduced-serum medium (Invitrogen Corporation, Carlsbad, Calif.) and then treated with 130 µL of OPTI-MEM-1 containing […] LIPOFECTIN (Invitrogen Corporation, Carlsbad, Calif.) and 75 nM of the compounds in Table 13. Cells were treated and data were obtained in duplicate. Untreated cells served as controls. After 4-7 hours of treatment at 37° C., the medium was replaced with fresh medium. Cells were harvested 16-24 hours after oligonucleotide treatment. STAT3 mRNA levels in A549 cells were quantitated by real-time PCR as described by other methods herein.
Probes and primers to human STAT3 were designed to hybridize to a human STAT3 sequence, using published sequence information (incorporated herein as SEQ ID NO: 1). For STAT 3 the PCR primers were: • forward primer: […]
(In general: Quantitative PCR measures a nucleic acid by following its amplification.)
For the substance “337245 (antisense eA*eG*e[5mC]*e[5mC]*eT*d[5mC]*dT*dG*d[5mC]*dA*d[5mC]*d[5mC]*d[5mC]*dT*d[5mC]*eA*eT*eG*eT*eT) [compound 337245]”, the “% Inhib (inhibition of human STAT 3 mRNA levels)” value (from here on “% Inhib”) stood at 77%.

Consider “337246 (antisense e[5mC]*eT*e[5mC]*e[5mC]*eT*dA*dA*dA*dT*dT*dA*dA*dG*dA*dA*e[5mC]*eT*eT*e[5mC]*eT) [compound 337246]”, for which the “% Inhib” value amounted to 37%.

As to “337248 (antisense eT*eA*eT*eT*eG*dA*dA*dA*dA*dT*dT*dA*dT*d[5mC]*dT*eA*eA*eT*eT*e[5mC]) [compound 337248]”, the “% Inhib” value amounted to 0%.

Take “337249 (antisense eT*eT*eG*eG*eG*d[5mC]*d[5mC]*dA*dT*d[5mC]*d[5mC]*dT*dG*d[5mC]*dT*eA*eA*eA*eA*eT) [compound 337249]”: the “% Inhib” value was determined as 48%.

With “337250 (antisense eA*eT*eT*e[5mC]*eA*d[5mC]*dT*dT*dG*d[5mC]*d[5mC]*dT*d[5mC]*d[5mC]*dT*eT*eG*eA*e[5mC]*eT) [compound 337250]”, the “% Inhib” value was found to be 51%.

In the case of “337251 (antisense eA*eT*eG*e[5mC]*e[5mC]*d[5mC]*dT*dT*dA*d[5mC]*dT*d[5mC]*dT*d[5mC]*d[5mC]*eG*e[5mC]*eA*eT*e[5mC]) [compound 337251]”, the “% Inhib” value is reported as 74%.

For the substance “337252 (antisense e[5mC]*eT*eG*eA*eA*d[5mC]*dT*dT*dA*d[5mC]*d[5mC]*d[5mC]*dT*d[5mC]*dT*eG*eA*eG*eA*eG) [compound 337252]”, the “% Inhib” value came to 60%.

For “337253 (antisense eA*eA*eA*eT*eG*d[5mC]*dG*dG*dA*d[5mC]*d[5mC]*d[5mC]*dA*dA*dG*eA*eG*eT*eT*eT) [compound 337253]”, the “% Inhib” value worked out at 49%.

In the case of “337254 (antisense e[5mC]*eT*eT*eG*eT*dT*d[5mC]*d[5mC]*d[5mC]*dT*d[5mC]*dG*dG*d[5mC]*dT*eG*e[5mC]*eG*eA*e[5mC]) [compound 337254]”, the “% Inhib” value came to 57%.

“337255 (antisense eG*e[5mC]*e[5mC]*eT*eG*dT*d[5mC]*d[5mC]*dA*dG*dG*dA*dT*d[5mC]*d[5mC]*eG*eG*eT*eT*eG) [compound 337255]”: the “% Inhib” value is 75%.

As for “337256 (antisense eG*eA*eA*eG*eG*dG*d[5mC]*d[5mC]*dT*d[5mC]*dT*d[5mC]*d[5mC]*dG*dA*eG*e[5mC]*e[5mC]*eG*eA) [compound 337256]”, the “% Inhib” value amounted to 67%.

“337257 (antisense eG*eG*e[5mC]*eG*eG*d[5mC]*dG*dA*dG*dG*d[5mC]*dT*d[5mC]*d[5mC]*d[5mC]*eT*e[5mC]*eA*eG*eG) [compound 337257]”: the “% Inhib” value is 80%.

With “337258 (antisense eT*e[5mC]*e[5mC]*eG*eG*d[5mC]*dA*dG*dA*dG*dG*d[5mC]*d[5mC]*dG*dA*eG*eA*eG*eG*e[5mC]) [compound 337258]”, the “% Inhib” value was found to be 56%.

Turning to “337259 (antisense e[5mC]*e[5mC]*eA*eT*e[5mC]*d[5mC]*dT*dG*d[5mC]*dT*dA*dA*dA*dA*dT*e[5mC]*eA*eG*eG*eG) [compound 337259]”, the “% Inhib” value is 58%.

Take “337260 (antisense e[5mC]*e[5mC]*eA*eT*eT*dG*dG*dG*d[5mC]*d[5mC]*dA*dT*d[5mC]*d[5mC]*dT*eG*e[5mC]*eT*eA*eA) [compound 337260]”: the “% Inhib” value turned out to be 62%.

For “337261 (antisense eT*eG*eT*e[5mC]*eA*dA*dG*d[5mC]*dT*dG*d[5mC]*dT*dG*dT*dA*eG*e[5mC]*eT*eG*eA) [compound 337261]”, the “% Inhib” value is 79%.

For “337262 (antisense eA*eA*e[5mC]*eT*eG*d[5mC]*d[5mC]*dG*d[5mC]*dA*dG*d[5mC]*dT*d[5mC]*d[5mC]*eA*eT*eT*eG*eG) [compound 337262]”, the “% Inhib” value came out at 74%.

“337263 (antisense eT*e[5mC]*eT*eT*eG*dA*d[5mC]*dT*d[5mC]*dT*d[5mC]*dA*dA*dT*d[5mC]*e[5mC]*eA*eA*eG*eG) [compound 337263]”: the “% Inhib” value is 79%.

As to “337264 (antisense e[5mC]*eG*e[5mC]*eA*eT*dA*dT*dG*d[5mC]*d[5mC]*d[5mC]*dA*dA*dT*d[5mC]*eT*eT*eG*eA*e[5mC]) [compound 337264]”, the “% Inhib” value was 81%.

“337265 (antisense e[5mC]*eG*eA*e[5mC]*eT*d[5mC]*dT*dT*dG*d[5mC]*dA*dG*dG*dA*dA*eG*e[5mC]*eG*eG*e[5mC]) [compound 337265]”: the “% Inhib” value was 92%.

As for “337266 (antisense eT*e[5mC]*eG*eT*eA*dG*dA*dT*dT*dG*dT*dG*d[5mC]*dT*dG*eA*eT*eA*eG*eA) [compound 337266]”, the “% Inhib” value is given as 61%.

Consider “337267 (antisense eA*eG*eA*eA*eA*d[5mC]*dT*dG*d[5mC]*dT*dT*dG*dA*dT*dT*e[5mC]*eT*eT*e[5mC]*eG) [compound 337267]”, for which the “% Inhib” value is on record as 62%.

In the case of “337268 (antisense eG*eA*eT*eA*e[5mC]*d[5mC]*dT*dG*d[5mC]*dT*d[5mC]*dT*dG*dA*dA*eG*eA*eA*eA*e[5mC]) [compound 337268]”, the “% Inhib” value is listed as 75%.

On to “337269 (antisense eT*eT*e[5mC]*eT*e[5mC]*dA*dA*dG*dA*dT*dA*d[5mC]*d[5mC]*dT*dG*e[5mC]*eT*e[5mC]*eT*eG) [compound 337269]”, for which the “% Inhib” value came out at 74%.

Take “337271 (antisense eG*eT*eG*eA*eT*dT*d[5mC]*dT*dT*d[5mC]*d[5mC]*d[5mC]*dA*d[5mC]*dA*eG*eG*e[5mC]*eA*e[5mC]) [compound 337271]”: the “% Inhib” value is recorded as 85%.

As to “337272 (antisense eA*eT*e[5mC]*eT*eG*d[5mC]*dT*dG*d[5mC]*dT*dT*d[5mC]*dT*d[5mC]*d[5mC]*eG*eT*e[5mC]*eA*e[5mC]) [compound 337272]”, the “% Inhib” value is 74%.

On to “337273 (antisense e[5mC]*e[5mC]*eA*eG*e[5mC]*dA*dT*d[5mC]*dT*dG*d[5mC]*dT*dG*d[5mC]*dT*eT*e[5mC]*eT*e[5mC]*e[5mC]) [compound 337273]”, for which the “% Inhib” value is reported as 73%.

“337274 (antisense eT*eG*eA*eA*eG*dG*dT*dG*d[5mC]*dT*dG*d[5mC]*dT*d[5mC]*d[5mC]*eA*eG*e[5mC]*eA*eT) [compound 337274]”: the “% Inhib” value turned out to be 74%.

On to “337275 (antisense eT*eT*e[5mC]*eT*eG*dT*dT*d[5mC]*dT*dA*dG*dA*dT*d[5mC]*d[5mC]*eT*eG*e[5mC]*eA*e[5mC]) [compound 337275]”, for which the “% Inhib” value is given as 82%.

As to “337277 (antisense eA*eA*eG*eT*e[5mC]*dA*dT*d[5mC]*d[5mC]*dT*dG*dG*dA*dG*dA*eT*eT*e[5mC]*eT*e[5mC]) [compound 337277]”, the “% Inhib” value was found to be 79%.

Turning to “337278 (antisense eA*eA*eT*e[5mC]*eA*dA*dA*dG*dT*d[5mC]*dA*dT*d[5mC]*d[5mC]*dT*eG*eG*eA*eG*eA) [compound 337278]”, the “% Inhib” value is 69%.
